Test results as given in US20220087987A1, “A METHOD FOR TREATING SWI/SNF COMPLEX-DEFICIENT CANCERS COMPRISING GLUTATHIONE (GSH) METABOLIC PATHWAY INHIBITOR” (National Cancer Center, priority 2018, published 2022).
Where two headings read alike, the source gives them in different places. Numbered stars: 1 amine (or outer) side, 2 acyl side, 3 side chain; on linkers, the order of the positions; unused ones are H or OH. Bridge positions count the residues as written; N and C are the ends. Square brackets hold non-standard residues; d marks the D form. Peptide text beside a SMILES is read from it. I, II: the chains in the order shown. Actinocin(9to1) = Cc1c2oc3c(C)ccc(C(=O)[*:1])c3nc-2c(C(=O)[*:2])c(N)c1=O; NMeV = CN[C@H](C(=O)O)C(C)C; Sar = CNCC(=O)O

How the values were obtained:
ARID1A-WT HCT116 cells = assay: Drug library screen, cell viability (CellTiter-Glo); assay type: cell-based, human; design: key to Cell viability, WT: % viability relative to DMSO solvent-treated cells
Procedure: (§1) ARID1A-WT and ARID1A-KO HCT116 cancer cells were used for screening assays. […] Cell viability was assessed after 5 days using the CellTiter-Glo Luminescent Cell Viability Assay (Promega). Luminescence was measured using an Envision Multi-label plate reader (PerkinElmer). The luminescence reading was used to determine the cell viability relative to that of cells treated with solvent (DMSO). Candidate compounds were considered if viability of ARID1A-KO cells was less than […] was more than 80%.

ARID1A-KO HCT116 cells = assay: as above; assay type: cell-based, human; design: key to Cell viability, KO: % viability relative to DMSO solvent-treated cells
Procedure: as §1

[1] = HCT116 ARID1A-WT, 10 μM for 5 days, relative to cells treated with solvent (DMSO)
[2] = HCT116 ARID1A-KO, 10 μM for 5 days, relative to cells treated with solvent (DMSO)

Row | SMILES | Cell viability, WT (ARID1A-WT HCT116 cells; [1]) | Cell viability, KO (ARID1A-KO HCT116 cells; [2]) | Cell viability, WT (ARID1A-WT HCT116 cells) | Cell viability, KO (ARID1A-KO HCT116 cells)
1 | O=c1[nH]c2ccccc2n1C1CCN(Cc2ccc(-c3nc4cc5[nH]cnc5cc4nc3-c3ccccc3)cc2)CC1 | 84.5 | 124.843 |  | 
2 | COc1cc2c(cc1OC)-c1[nH]nc(Nc3cccc(F)c3)c1C2 | 5.928 | 12.89 |  | 
3 | COc1cc2nccc(Oc3ccc(NC(=S)NC(=O)c4ccccc4C)cc3)c2cc1OC | 99 | 107.0846 |  | 
4 | O=C1Cc2c([nH]c3ccc(Br)cc23)-c2ncccc2N1 [1-Azakenpaullone] | 95.89 | 114.0704 |  | 
5 | C1=Cc2nc1cc1ccc([nH]1)c(-c1ccccc1)c1nc(cc3ccc([nH]3)c2-c2ccccc2)C=C1 [5,15-DPP] | 90.1195 | 98.73 |  | 
6 | O=c1[nH]cc(F)c(=O)[nH]1 [5-FU] | 32.167 | 24.07 |  | 
7 | C=CCNC1=C2C[C@@H](C)C[C@H](OC)[C@H](O)[C@@H](C)/C=C(\C)[C@H](OC(N)=O)[C@@H](OC)/C=C\C=C(/C)C(=O)NC(=CC1=O)C2=O [17-AAG] | 8.063 | 8.214 |  | 
8 | Cc1cccc(-c2nn(C(=S)Nc3ccccc3)cc2-c2ccnc3ccccc23)n1 [A83-01] | 77.92 | 104.8454 |  | 
9 | Nc1ncnc2nc(-c3ccc(N4CCOCC4)nc3)cc(-c3cccc(Br)c3)c12 [ABT-702] | 94.11 | 111.7532 |  | 
10 | N#C/C(=C/c1ccc(O)c(O)c1)C(=O)NCc1ccccc1 [AG490] | 152.9882 | 114.4173 |  | 
11 | COc1cc(/C=C(\C#N)C(N)=O)cc(CSc2nc3ccccc3s2)c1O [AG825] | 85.83 | 80.86 |  | 
12 | COC(=O)c1ccc(NCc2cc(O)ccc2O)cc1 [AG957] | 23.69 | 17.53 |  | 
13 | CC(C)(C)c1cc(C=C(C#N)C#N)cc(Br)c1O [AG1024] | 161.1636 | 183.5477 |  | 
14 | COc1cc2ncc(-c3ccccc3)nc2cc1OC [AG1296] | 190.9406 | 144.7899 |  | 
15 | COc1cc2ncnc(Nc3cccc(Cl)c3)c2cc1OC [AG1478] | 149.2606 | 129.9442 |  | 
16 | N#C/C(=C\c1ccc2oc(=O)[nH]c2c1)C(=O)c1ccc(O)c(O)c1 [AGL 2263] | 148.6873 | 172.9001 |  | 
17 | Cl.Cl.Cl.Cl.Cl.Cl.Cl.Cl.c1cc(CN2CCCNCCNCCCNCC2)ccc1CN1CCCNCCNCCCNCC1 [AMD3100 octahydrochloride] |  |  | 102.6908 | 102.0251
18 | O=C(Nc1ccc2c(O)cc(S(=O)(=O)O)cc2c1)Nc1ccc2c(O)cc(S(=O)(=O)O)cc2c1 [AMI-1] |  | 85.52 |  | 
19 | CC1CCN=C(N)S1.Cl (centres unmarked) [AMT, HCl] | 171.2223 | 139.818 |  | 
20 | O=c1cc(-c2cccc3c2Sc2ccccc2S3)oc(N2CCOCC2)c1 [ATM kinase inhibitor] | 70.42 | 83.21 |  | 
21 | O=C(NC(NC(=S)Nc1ccc(F)c([N+](=O)[O-])c1)C(Cl)(Cl)Cl)C(c1ccccc1)c1ccccc1 (centres unmarked) [ATM/ATR kinase inhibitor] | 59.07 | 76.77 |  | 
22 | Clc1ccccc1CNCC1CCC(CNCc2ccccc2Cl)CC1 (centres unmarked) [AY 9944] | 31.41 | 50.15 |  | 
23 | Cc1cn([C@H]2C[C@H](N=[N+]=[N-])[C@@H](CO)O2)c(=O)[nH]c1=O [AZT] | 71.38 | 60.27 |  | 
24 | Cc1c2oc3c(C)ccc(C(=O)N[C@@H]4C(=O)N[C@H](C(C)C)C(=O)N5CCC[C@H]5C(=O)N(C)CC(=O)N(C)[C@@H](C(C)C)C(=O)O[C@@H]4C)c3nc-2c(C(=O)N[C@@H]2C(=O)N[C@H](C(C)C)C(=O)N3CCC[C@H]3C(=O)N(C)CC(=O)N(C)[C@@H](C(C)C)C(=O)O[C@@H]2C)c(N)c1=O [Actinomycin D] (I: T[dV]P[Sar][NMeV] / II: T[dV]P[Sar][NMeV]; ester I:1-I:C, II:1-II:C; linker I:N-II:N via Actinocin(9to1)) | 6.951 | 6.531 |  | 
25 | N#CCCc1ccc2c(c1)-c1[nH]c3ccc([N+](=O)[O-])cc3c1CC(=O)N2 [Alsterpaullone, 2-cyanoethyl] | 6.82 | 14.55 |  | 
26 | CCCCCCCCCCCCCCCc1cccc(O)c1C(=O)O [Anacardic acid] | 102.71 | 112.6464 |  | 
27 | COc1cc2ncnc(Nc3ccc(NC(=O)c4ccccc4)cc3)c2cc1OC [Aurora kinase inhibitor II] | 53.336 | 60.46 |  | 
28 | Nc1ncn([C@@H]2O[C@H](CO)[C@@H](O)[C@H]2O)c(=O)n1 [Azacytidine] | 86.54 | 43.39 |  | 

Row | SMILES | Cell viability, WT (ARID1A-WT HCT116 cells; [1]) | Cell viability, KO (ARID1A-KO HCT116 cells; [2]) | Cell viability, WT (ARID1A-WT HCT116 cells) | Cell viability, KO (ARID1A-KO HCT116 cells)
29 | CC(C)(c1ccc(OCC2CO2)cc1)c1ccc(OCC2CO2)cc1 (centres unmarked) [BADGE] | 93.59 | 107.888 |  | 
30 | CC(C)C(C(=O)O)N1C(=O)/C(=C\c2ccc(Br)cc2)SC1=S (centres unmarked) [BH3I-1] | 99.91 | 109.7951 |  | 
31 | O=C1Nc2cc(Br)ccc2/C1=C1/Nc2ccccc2/C1=N\O [BIO] | 87.19 | 107.4068 |  | 
32 | CO/C1=C\C(C)=C\[C@@H](C)[C@@H](O)[C@@H](C)C/C(C)=C/C=C/[C@H](OC)[C@@H]([C@@H](C)[C@@H](O)[C@H](C)[C@@]2(O)C[C@@H](O)[C@H](C)[C@@H](C(C)C)O2)OC1=O [Bafilomycin AI] | 4.059 | 4.345 |  | 
33 | Nc1nc(OCc2ccccc2)c2nc[nH]c2n1 [Benzylguanine] |  |  | 88.84 | 105.1044
34 | CN(C)CCCn1cc(C2=C(c3c[nH]c4ccccc34)C(=O)NC2=O)c2ccccc21.Cl [Bisindolymaleimide I, HCl] | 8.077 | 6.106 |  | 
35 | C=C1C(=O)OC(CCCCCCCC)C1C(=O)O (centres unmarked) [C75] | 103.4877 | 93.63 |  | 
36 | CC1=NN(c2ccc(C(=O)O)cc2)C(=O)/C1=C\c1ccc(-c2cc(C)c(C)cc2[N+](=O)[O-])o1 [C646] |  |  | 93.09 | 115.173
37 | CCCNC(=O)[C@H]1O[C@@H]1C(=O)N[C@H](C(=O)N1CCC[C@H]1C(=O)O)[C@@H](C)CC [CA-074] | 107.6022 | 115.0436 |  | 
38 | Cc1nc(N)sc1-c1ccnc(Nc2cccc([N+](=O)[O-])c2)n1 [Cdk 2/9 inhibitor] | 6.309 | 14.26 |  | 
39 | Nc1nc(Nc2ccc(S(N)(=O)=O)cc2)nn1C(=S)Nc1c(F)cccc1F [Cdk½ inhibitor III] | 8.59 | 18.12 |  | 
40 | NC(=O)c1ccc2nc(-c3ccc(Oc4ccc(Cl)cc4)cc3)[nH]c2c1 [Chk2 inhibitor II] | 104.0524 | 139.2543 |  | 
41 | CC(C)(O)/C=C/C(=O)[C@](C)(O)[C@H]1[C@H](O)C[C@@]2(C)[C@@H]3CC=C4[C@@H](C=C(O)C(=O)C4(C)C)[C@]3(C)C(=O)C[C@]12C [Cucurbitacin I] | 13.95 | 15.25 |  | 
42 | C=C1[C@@H](C)[C@H]2[C@H](Cc3ccccc3)NC(=O)[C@]23[C@H](OC(C)=O)/C=C/[C@@](C)(O)C(=O)[C@@H](C)C/C=C/[C@H]3[C@@H]1O [Cytochalasin D] | 63 | 59.86 |  | 
43 | NC(=O)c1ccc(-c2nc(-c3ccc4c(c3)OCCO4)c(-c3ccccn3)[nH]2)cc1 [D4476] |  |  | 93.4 | 124.271
44 | C[C@H](NC(=O)Cc1cc(F)cc(F)c1)C(=O)N[C@H](C(=O)OC(C)(C)C)c1ccccc1 [DAPT] | 93.12 | 103.8309 |  | 
45 | NCCCC(N)(C(=O)O)C(F)F (centres unmarked) [DFMO] | 98.8 | 117.8191 |  | 
46 | O=S(=O)(O)c1cc(N=C=S)ccc1C=Cc1ccc(N=C=S)cc1S(=O)(=O)O [DIDS] | 97.04 | 107.2053 |  | 
47 | CN(C)c1nc2c(Br)c(Br)c(Br)c(Br)c2[nH]1 [DMAT] | 113.7397 | 116.7866 |  | 
48 | COC(=O)CNC(=O)C(=O)OC [Dimethyloxalylglycine] | 95.769 | 119.9436 |  | 
49 | CCCCCCCC(=O)OCCOC(=O)CCCCCCC [Dioctanoylglycol] | 99.78 | 109.4112 |  | 
50 | CCOC(=O)[C@H]1O[C@@H]1C(=O)N[C@@H](CC(C)C)C(=O)NCCC(C)C [E-64d] | 100.8821 | 100.5678 |  | 
51 | Nc1[nH]nc2nnc(-c3c(-c4ccccc4)nn4ccccc34)cc12 [ERK inhibitor II] | 103.8555 | 160.6702 |  | 
52 | CCCCCC#CCC#CCC#CCC#CCCCC(=O)O [ETYA] | 95.86 | 110.2846 |  | 
53 | COc1ccc2c3c([nH]c2c1)[C@H](C=C(C)C)N1C(=O)[C@@H]2CCCN2C(=O)[C@@H]1C3 [Fumitremorgin C] | 90.41 | 97.39 |  | 
54 | COC(=O)[C@H](CC(C)C)NC(=O)c1ccc(NC[C@@H](N)CS)cc1-c1ccccc1 [GGTI-286] |  | 123.5827 |  | 
55 | COc1ccc(C[C@H]2NC[C@H](O)[C@H]2OC(C)=O)cc1 [anisomycin] |  | 7.327 |  | 
